Reference: patent publication US8338486B2, “Methods for the treatment of CNS-related conditions” (Adamas Pharmaceuticals, Inc., priority 2004, dated 2012)

What was measured:
[1] = cited from earlier work; for Tmax / Human PK T½: humans
[2] = humans; cited from earlier work
[3] = Release profile (cumulative fraction released; USP II Paddle system, water); assay type: physicochemical; settings: memantine-galantamine combination
Description: The cumulative fraction is the amount of drug substance released from the formulation matrix to the serum or gut environment (e.g., U.S. Pat. No. 4,839,177) or as measured with a USP II Paddle system using water as the dissolution medium.

| SMILES | Tmax [1] [h] | Main Dose-Dependent Adverse Event [2] | Human PK T½ [1] [h] | cum. fraction ([3]; Time 1) | cum. fraction ([3]; Time 2) | cum. fraction ([3]; Time 4) | cum. fraction ([3]; Time 8) | cum. fraction ([3]; Time 12) | cum. fraction ([3]; Time 16) | cum. fraction ([3]; Time 20) | cum. fraction ([3]; Time 24) | T½ ([1]; head of Table 4) | Dose Dependent Tox [2] |
| --- | --- | --- | --- | --- | --- | --- | --- | --- | --- | --- | --- | --- | --- |
| CCN(C)C(=O)Oc1cccc([C@H](C)N(C)C)c1 [EXELON ®/Rivastigmine] | 1 to 2.5 | Nausea, vomiting |  |  |  |  |  |  |  |  |  |  |  |
| C/C=C1\[C@H]2C=C(C)C[C@]1(N)c1ccc(=O)[nH]c1C2 [HUPERZINE-A] | 1.3 |  | 4.8 |  |  |  |  |  |  |  |  |  |  |
| CC12CC3CC(C)(C1)CC(N)(C3)C2 [Memantine, 1-amino-3,5-dimethyladamantane] |  |  |  | 0.2 | 0.3 | 0.4 | 0.5 | 0.6 | 0.7 | 0.8 | 0.9 |  |  |
| COc1ccc2c3c1O[C@H]1C[C@@H](O)C=C[C@@]31CCN(C)C2 [REMINYL ®/Galantamine] | 1 to 2.5 |  | 7 | 0.2 | 0.3 | 0.4 | 0.5 | 0.6 | 0.7 | 0.8 | 1.0 | T½ = 7 hrs |  |
| CC(N)C12CC3CC(CC(C3)C1)C2 (stereo not drawn) [Rimantadine, 1-(1-aminoethyl)adamantane] |  |  |  |  |  |  |  |  |  |  |  |  | Insomnia |
